Assay results from US12049450B2, “Pyridyloxy-carboxylate derivative and preparation method therefor, herbicidal composition, and use” (Qingdao Kingagroot Chemical Compound Co., Ltd., priority 2018, dated 2024).

What was measured:
Experiment in all cases: Post-emergence test experiment (greenhouse pot, spray at 2-3 leaf stage)
Type in all cases: in vivo
Settings in all cases: 1000 g/ha; post-emergence spray at 2-3 leaf stage; assessed after 3 weeks; fresh weight inhibition rate
[1] = system: Galium spurium
In short: (§1)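 Weed seeds sown in soil-filled pots in greenhouse, sprayed at 2-3 leaf stage (2 weeks after sowing) with compound in acetone/tween-80 plus methyl oleate emulsible concentrate (1.5 L/ha) diluted in water. Fresh-weight growth inhibition scored after 3 weeks on 0-5 scale (5: >85%, 0: <5%).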

[2] = system: Abutilon theophrasti
In short: as §1

[3] = system: Echinochloa crusgalli
In short: as §1

[4] = system: Digitaria sanguinalis
In short: as §1

[5] = system: Monochoria vaginalis
In short: as §1

CC(Oc1nc(F)c(Cl)c(N)c1Cl)C(=O)OCc1ccns1 (stereo not shown) [Compound 160]
Activity level (growth inhibition rate) Galium spurium [1]: 5 (Level 5: the growth inhibition rate is greater than 85%)
Activity level (growth inhibition rate) Abutilon theophrasti [2]: 5 (Level 5: the growth inhibition rate is greater than 85%)
Activity level (growth inhibition rate) Echinochloa crusgalli [3]: 5 (Level 5: the growth inhibition rate is greater than 85%)
Activity level (growth inhibition rate) Digitaria sanguinalis [4]: 5 (Level 5: the growth inhibition rate is greater than 85%)
Activity level (growth inhibition rate) Monochoria Vaginalis [5]: 5 (Level 5: the growth inhibition rate is greater than 85%)

CC(Oc1nc(F)c(Cl)c(N)c1Cl)C(=O)SCc1ccsn1 (stereo not shown) [Compound 161]
Activity level (growth inhibition rate) Galium spurium [1]: 5 (Level 5: the growth inhibition rate is greater than 85%)
Activity level (growth inhibition rate) Abutilon theophrasti [2]: 5 (Level 5: the growth inhibition rate is greater than 85%)
Activity level (growth inhibition rate) Echinochloa crusgalli [3]: 5 (Level 5: the growth inhibition rate is greater than 85%)
Activity level (growth inhibition rate) Digitaria sanguinalis [4]: 5 (Level 5: the growth inhibition rate is greater than 85%)
Activity level (growth inhibition rate) Monochoria Vaginalis [5]: 5 (Level 5: the growth inhibition rate is greater than 85%)

CC(Oc1nc(F)c(Cl)c(N)c1Cl)C(=O)OCCc1cnsc1 (stereo not shown) [Compound 162]
Activity level (growth inhibition rate) Galium spurium [1]: 5 (Level 5: the growth inhibition rate is greater than 85%)
Activity level (growth inhibition rate) Abutilon theophrasti [2]: 5 (Level 5: the growth inhibition rate is greater than 85%)
Activity level (growth inhibition rate) Echinochloa crusgalli [3]: 5 (Level 5: the growth inhibition rate is greater than 85%)
Activity level (growth inhibition rate) Digitaria sanguinalis [4]: 5 (Level 5: the growth inhibition rate is greater than 85%)
Activity level (growth inhibition rate) Monochoria Vaginalis [5]: 5 (Level 5: the growth inhibition rate is greater than 85%)

CC(Oc1nc(F)c(Cl)c(N)c1Cl)C(=O)OCc1nccs1 (stereo not shown) [Compound 163]
Activity level (growth inhibition rate) Galium spurium [1]: 5 (Level 5: the growth inhibition rate is greater than 85%)
Activity level (growth inhibition rate) Abutilon theophrasti [2]: 5 (Level 5: the growth inhibition rate is greater than 85%)
Activity level (growth inhibition rate) Echinochloa crusgalli [3]: 5 (Level 5: the growth inhibition rate is greater than 85%)
Activity level (growth inhibition rate) Digitaria sanguinalis [4]: 5 (Level 5: the growth inhibition rate is greater than 85%)
Activity level (growth inhibition rate) Monochoria Vaginalis [5]: 5 (Level 5: the growth inhibition rate is greater than 85%)

CC(Oc1nc(F)c(Cl)c(N)c1Cl)C(=O)OCc1nncs1 (stereo not shown) [Compound 164]
Activity level (growth inhibition rate) Galium spurium [1]: 5 (Level 5: the growth inhibition rate is greater than 85%)
Activity level (growth inhibition rate) Abutilon theophrasti [2]: 5 (Level 5: the growth inhibition rate is greater than 85%)
Activity level (growth inhibition rate) Echinochloa crusgalli [3]: 5 (Level 5: the growth inhibition rate is greater than 85%)
Activity level (growth inhibition rate) Digitaria sanguinalis [4]: 5 (Level 5: the growth inhibition rate is greater than 85%)
Activity level (growth inhibition rate) Monochoria Vaginalis [5]: 5 (Level 5: the growth inhibition rate is greater than 85%)

CC(Oc1nc(F)c(Cl)c(N)c1Cl)C(=O)SCCc1ncsn1 (stereo not shown) [Compound 165]
Activity level (growth inhibition rate) Galium spurium [1]: 5 (Level 5: the growth inhibition rate is greater than 85%)
Activity level (growth inhibition rate) Abutilon theophrasti [2]: 5 (Level 5: the growth inhibition rate is greater than 85%)
Activity level (growth inhibition rate) Echinochloa crusgalli [3]: 5 (Level 5: the growth inhibition rate is greater than 85%)
Activity level (growth inhibition rate) Digitaria sanguinalis [4]: 5 (Level 5: the growth inhibition rate is greater than 85%)
Activity level (growth inhibition rate) Monochoria Vaginalis [5]: 5 (Level 5: the growth inhibition rate is greater than 85%)

CC(Oc1nc(F)c(Cl)c(N)c1Cl)C(=O)OCc1cnns1 (stereo not shown) [Compound 166]
Activity level (growth inhibition rate) Galium spurium [1]: 5 (Level 5: the growth inhibition rate is greater than 85%)
Activity level (growth inhibition rate) Abutilon theophrasti [2]: 5 (Level 5: the growth inhibition rate is greater than 85%)
Activity level (growth inhibition rate) Echinochloa crusgalli [3]: 5 (Level 5: the growth inhibition rate is greater than 85%)
Activity level (growth inhibition rate) Digitaria sanguinalis [4]: 5 (Level 5: the growth inhibition rate is greater than 85%)
Activity level (growth inhibition rate) Monochoria Vaginalis [5]: 5 (Level 5: the growth inhibition rate is greater than 85%)

CC(Oc1nc(F)c(Cl)c(N)c1Cl)C(=O)OCc1ncns1 (stereo not shown) [Compound 167]
Activity level (growth inhibition rate) Galium spurium [1]: 5 (Level 5: the growth inhibition rate is greater than 85%)
Activity level (growth inhibition rate) Abutilon theophrasti [2]: 5 (Level 5: the growth inhibition rate is greater than 85%)
Activity level (growth inhibition rate) Echinochloa crusgalli [3]: 5 (Level 5: the growth inhibition rate is greater than 85%)
Activity level (growth inhibition rate) Digitaria sanguinalis [4]: 5 (Level 5: the growth inhibition rate is greater than 85%)
Activity level (growth inhibition rate) Monochoria Vaginalis [5]: 5 (Level 5: the growth inhibition rate is greater than 85%)

CC(Oc1nc(F)c(Cl)c(N)c1Cl)C(=O)SCc1csnn1 (stereo not shown) [Compound 168]
Activity level (growth inhibition rate) Galium spurium [1]: 5 (Level 5: the growth inhibition rate is greater than 85%)
Activity level (growth inhibition rate) Abutilon theophrasti [2]: 5 (Level 5: the growth inhibition rate is greater than 85%)
Activity level (growth inhibition rate) Echinochloa crusgalli [3]: 5 (Level 5: the growth inhibition rate is greater than 85%)
Activity level (growth inhibition rate) Digitaria sanguinalis [4]: 5 (Level 5: the growth inhibition rate is greater than 85%)
Activity level (growth inhibition rate) Monochoria Vaginalis [5]: 5 (Level 5: the growth inhibition rate is greater than 85%)

CC(Oc1nc(F)c(Cl)c(N)c1Cl)C(=O)OCC1C=C2C=CC=CC2N1 (stereo not shown) [Compound 169]
Activity level (growth inhibition rate) Galium spurium [1]: 5 (Level 5: the growth inhibition rate is greater than 85%)
Activity level (growth inhibition rate) Abutilon theophrasti [2]: 5 (Level 5: the growth inhibition rate is greater than 85%)
Activity level (growth inhibition rate) Echinochloa crusgalli [3]: 5 (Level 5: the growth inhibition rate is greater than 85%)
Activity level (growth inhibition rate) Digitaria sanguinalis [4]: 5 (Level 5: the growth inhibition rate is greater than 85%)
Activity level (growth inhibition rate) Monochoria Vaginalis [5]: 5 (Level 5: the growth inhibition rate is greater than 85%)

CC(Oc1nc(F)c(Cl)c(N)c1Cl)C(=O)SCc1nc2ccccc2[nH]1 (stereo not shown) [Compound 170]
Activity level (growth inhibition rate) Galium spurium [1]: 5 (Level 5: the growth inhibition rate is greater than 85%)
Activity level (growth inhibition rate) Abutilon theophrasti [2]: 5 (Level 5: the growth inhibition rate is greater than 85%)
Activity level (growth inhibition rate) Echinochloa crusgalli [3]: 5 (Level 5: the growth inhibition rate is greater than 85%)
Activity level (growth inhibition rate) Digitaria sanguinalis [4]: 5 (Level 5: the growth inhibition rate is greater than 85%)
Activity level (growth inhibition rate) Monochoria Vaginalis [5]: 5 (Level 5: the growth inhibition rate is greater than 85%)

CC(Oc1nc(F)c(Cl)c(N)c1Cl)C(=O)OCc1ccc2c(ccn2C)c1 (stereo not shown) [Compound 171]
Activity level (growth inhibition rate) Galium spurium [1]: 5 (Level 5: the growth inhibition rate is greater than 85%)
Activity level (growth inhibition rate) Abutilon theophrasti [2]: 5 (Level 5: the growth inhibition rate is greater than 85%)
Activity level (growth inhibition rate) Echinochloa crusgalli [3]: 5 (Level 5: the growth inhibition rate is greater than 85%)
Activity level (growth inhibition rate) Digitaria sanguinalis [4]: 5 (Level 5: the growth inhibition rate is greater than 85%)
Activity level (growth inhibition rate) Monochoria Vaginalis [5]: 5 (Level 5: the growth inhibition rate is greater than 85%)

CCn1cnc2ccc(COC(=O)C(C)Oc3nc(F)c(Cl)c(N)c3Cl)cc21 (stereo not shown) [Compound 172]
Activity level (growth inhibition rate) Galium spurium [1]: 5 (Level 5: the growth inhibition rate is greater than 85%)
Activity level (growth inhibition rate) Abutilon theophrasti [2]: 5 (Level 5: the growth inhibition rate is greater than 85%)
Activity level (growth inhibition rate) Echinochloa crusgalli [3]: 5 (Level 5: the growth inhibition rate is greater than 85%)
Activity level (growth inhibition rate) Digitaria sanguinalis [4]: 5 (Level 5: the growth inhibition rate is greater than 85%)
Activity level (growth inhibition rate) Monochoria Vaginalis [5]: 5 (Level 5: the growth inhibition rate is greater than 85%)

CC(Oc1nc(F)c(Cl)c(N)c1Cl)C(=O)OCc1cc2ccccc2o1 (stereo not shown) [Compound 173]
Activity level (growth inhibition rate) Galium spurium [1]: 5 (Level 5: the growth inhibition rate is greater than 85%)
Activity level (growth inhibition rate) Abutilon theophrasti [2]: 5 (Level 5: the growth inhibition rate is greater than 85%)
Activity level (growth inhibition rate) Echinochloa crusgalli [3]: 5 (Level 5: the growth inhibition rate is greater than 85%)
Activity level (growth inhibition rate) Digitaria sanguinalis [4]: 5 (Level 5: the growth inhibition rate is greater than 85%)
Activity level (growth inhibition rate) Monochoria Vaginalis [5]: 5 (Level 5: the growth inhibition rate is greater than 85%)

CC(Oc1nc(F)c(Cl)c(N)c1Cl)C(=O)SCc1ccc2ncoc2c1 (stereo not shown) [Compound 174]
Activity level (growth inhibition rate) Galium spurium [1]: 5 (Level 5: the growth inhibition rate is greater than 85%)
Activity level (growth inhibition rate) Abutilon theophrasti [2]: 5 (Level 5: the growth inhibition rate is greater than 85%)
Activity level (growth inhibition rate) Echinochloa crusgalli [3]: 5 (Level 5: the growth inhibition rate is greater than 85%)
Activity level (growth inhibition rate) Digitaria sanguinalis [4]: 5 (Level 5: the growth inhibition rate is greater than 85%)
Activity level (growth inhibition rate) Monochoria Vaginalis [5]: 5 (Level 5: the growth inhibition rate is greater than 85%)

Cc1nc2cc(COC(=O)C(C)Oc3nc(F)c(Cl)c(N)c3Cl)ccc2o1 (stereo not shown) [Compound 175]
Activity level (growth inhibition rate) Galium spurium [1]: 5 (Level 5: the growth inhibition rate is greater than 85%)
Activity level (growth inhibition rate) Abutilon theophrasti [2]: 5 (Level 5: the growth inhibition rate is greater than 85%)
Activity level (growth inhibition rate) Echinochloa crusgalli [3]: 5 (Level 5: the growth inhibition rate is greater than 85%)
Activity level (growth inhibition rate) Digitaria sanguinalis [4]: 5 (Level 5: the growth inhibition rate is greater than 85%)
Activity level (growth inhibition rate) Monochoria Vaginalis [5]: 5 (Level 5: the growth inhibition rate is greater than 85%)

CC(Oc1nc(F)c(Cl)c(N)c1Cl)C(=O)OCc1ccc2c(c1)OCO2 (stereo not shown) [Compound 176]
Activity level (growth inhibition rate) Galium spurium [1]: 5 (Level 5: the growth inhibition rate is greater than 85%)
Activity level (growth inhibition rate) Abutilon theophrasti [2]: 5 (Level 5: the growth inhibition rate is greater than 85%)
Activity level (growth inhibition rate) Echinochloa crusgalli [3]: 5 (Level 5: the growth inhibition rate is greater than 85%)
Activity level (growth inhibition rate) Digitaria sanguinalis [4]: 5 (Level 5: the growth inhibition rate is greater than 85%)
Activity level (growth inhibition rate) Monochoria Vaginalis [5]: 5 (Level 5: the growth inhibition rate is greater than 85%)
